Assay results published in the supplement of paper PMC10307832.

Experiments:
Assay in all cases: relative viability (nuclei count vs DMSO), 5 days (fraction); higher = more cells survive
NCI-H322M = system: NCI-H322M
Procedure, shortened: (§1)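 Relative viability was taken as the ratio of nuclei in treated wells to nuclei in vehicle wells. Lung cancer cell lines in 1536-well plates received compounds by pin tool one day after seeding, either one drug alone or a fixed anchor-drug dose plus five library-drug doses (not always all listed) in √10 steps. Nuclei were counted on 4× images after 5 days of treatment, and values are medians of duplicate plates.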

NCI-H1651 = system: NCI-H1651
Procedure, shortened: as §1

LXF-289 = system: LXF-289
Procedure, shortened: as §1

PC-3 [JPC-3] = system: PC-3 [JPC-3]
Procedure, shortened: as §1

ChaGo-K-1 = system: ChaGo-K-1
Procedure, shortened: as §1

NCI-H661 = system: NCI-H661
Procedure, shortened: as §1

SK-MES-1 = system: SK-MES-1
Procedure, shortened: as §1

HCC-78 = system: HCC-78
Procedure, shortened: as §1

NCI-H596 = system: NCI-H596
Procedure, shortened: as §1

NCI-H2342 = system: NCI-H2342
Procedure, shortened: as §1

UMC-11 = system: UMC-11
Procedure, shortened: as §1

HCC-15 = system: HCC-15
Procedure, shortened: as §1

LU99A = system: LU99A
Procedure, shortened: as §1

LC-2-ad = system: LC-2-ad
Procedure, shortened: as §1

NCI-H838 = system: NCI-H838
Procedure, shortened: as §1

BEN = system: BEN
Procedure, shortened: as §1

NCI-H650 = system: NCI-H650
Procedure, shortened: as §1

NCI-H2087 = system: NCI-H2087
Procedure, shortened: as §1

NCI-H358 = system: NCI-H358
Procedure, shortened: as §1

NCI-H1944 = system: NCI-H1944
Procedure, shortened: as §1

LK-2 = system: LK-2
Procedure, shortened: as §1

NCI-H1666 = system: NCI-H1666
Procedure, shortened: as §1

LCLC-97TM1 = system: LCLC-97TM1
Procedure, shortened: as §1

## NC(=O)Nc1cc(-c2cccc(F)c2)sc1C(=O)N[C@H]1CCCNC1 [AZD7762] + O=C(CCCCCCC(=O)Nc1ccccc1)NO [Vorinostat] (partner 1 µM)
NCI-H322M; first compound 0.01 µM
  relative viability: 0.822
NCI-H322M; first compound 0.03162 µM
  relative viability: 0.967
NCI-H322M; first compound 0.1 µM
  relative viability: 0.935
NCI-H322M; first compound 0.3162 µM
  relative viability: 0.792
NCI-H322M; first compound 1 µM
  relative viability: 0.478
NCI-H1651; first compound 0.01 µM
  relative viability: 0.569
NCI-H1651; first compound 0.03162 µM
  relative viability: 0.727
NCI-H1651; first compound 0.1 µM
  relative viability: 0.587
NCI-H1651; first compound 0.3162 µM
  relative viability: 0.533
NCI-H1651; first compound 1 µM
  relative viability: 0.272
LXF-289; first compound 0.01 µM
  relative viability: 0.67
LXF-289; first compound 0.03162 µM
  relative viability: 0.802
LXF-289; first compound 0.1 µM
  relative viability: 0.77
LXF-289; first compound 0.3162 µM
  relative viability: 0.78
LXF-289; first compound 1 µM
  relative viability: 0.83
PC-3 [JPC-3]; first compound 0.01 µM
  relative viability: 0.644
PC-3 [JPC-3]; first compound 0.03162 µM
  relative viability: 0.888
PC-3 [JPC-3]; first compound 0.1 µM
  relative viability: 0.759
PC-3 [JPC-3]; first compound 0.3162 µM
  relative viability: 0.607
PC-3 [JPC-3]; first compound 1 µM
  relative viability: 0.501
ChaGo-K-1; first compound 0.01 µM
  relative viability: 0.744
ChaGo-K-1; first compound 0.03162 µM
  relative viability: 0.743
ChaGo-K-1; first compound 0.1 µM
  relative viability: 0.739
ChaGo-K-1; first compound 0.3162 µM
  relative viability: 0.785
ChaGo-K-1; first compound 1 µM
  relative viability: 0.793
NCI-H661; first compound 0.01 µM
  relative viability: 0.929
NCI-H661; first compound 0.03162 µM
  relative viability: 0.867
NCI-H661; first compound 0.1 µM
  relative viability: 0.98
NCI-H661; first compound 0.3162 µM
  relative viability: 0.604
NCI-H661; first compound 1 µM
  relative viability: 0.341
SK-MES-1; first compound 0.01 µM
  relative viability: 1.12
SK-MES-1; first compound 0.03162 µM
  relative viability: 1.01
SK-MES-1; first compound 0.1 µM
  relative viability: 0.841
SK-MES-1; first compound 0.3162 µM
  relative viability: 0.45
SK-MES-1; first compound 1 µM
  relative viability: 0.192
HCC-78; first compound 0.01 µM
  relative viability: 0.496
HCC-78; first compound 0.03162 µM
  relative viability: 0.469
HCC-78; first compound 0.1 µM
  relative viability: 0.498
HCC-78; first compound 0.3162 µM
  relative viability: 0.425
HCC-78; first compound 1 µM
  relative viability: 0.349
NCI-H596; first compound 0.01 µM
  relative viability: 0.691
NCI-H596; first compound 0.03162 µM
  relative viability: 0.803
NCI-H596; first compound 0.1 µM
  relative viability: 0.716
NCI-H596; first compound 0.3162 µM
  relative viability: 0.593
NCI-H596; first compound 1 µM
  relative viability: 0.594
NCI-H2342; first compound 0.01 µM
  relative viability: 0.715
NCI-H2342; first compound 0.03162 µM
  relative viability: 0.85
NCI-H2342; first compound 0.1 µM
  relative viability: 0.722
NCI-H2342; first compound 0.3162 µM
  relative viability: 0.74
NCI-H2342; first compound 1 µM
  relative viability: 0.633
UMC-11; first compound 0.01 µM
  relative viability: 0.373
UMC-11; first compound 0.03162 µM
  relative viability: 0.297
UMC-11; first compound 0.1 µM
  relative viability: 0.324
UMC-11; first compound 0.3162 µM
  relative viability: 0.271
UMC-11; first compound 1 µM
  relative viability: 0.194
HCC-15; first compound 0.01 µM
  relative viability: 0.844
HCC-15; first compound 0.03162 µM
  relative viability: 0.691
HCC-15; first compound 0.1 µM
  relative viability: 0.908
HCC-15; first compound 0.3162 µM
  relative viability: 0.734
HCC-15; first compound 1 µM
  relative viability: 0.723
LU99A; first compound 0.01 µM
  relative viability: 0.469
LU99A; first compound 0.03162 µM
  relative viability: 0.536
LU99A; first compound 0.1 µM
  relative viability: 0.561
LU99A; first compound 0.3162 µM
  relative viability: 0.345
LU99A; first compound 1 µM
  relative viability: 0.171
LC-2-ad; first compound 0.01 µM
  relative viability: 0.724
LC-2-ad; first compound 0.03162 µM
  relative viability: 0.755
LC-2-ad; first compound 0.1 µM
  relative viability: 0.749
LC-2-ad; first compound 0.3162 µM
  relative viability: 0.647
LC-2-ad; first compound 1 µM
  relative viability: 0.448
NCI-H838; first compound 0.01 µM
  relative viability: 0.731
NCI-H838; first compound 0.03162 µM
  relative viability: 0.726
NCI-H838; first compound 0.1 µM
  relative viability: 0.76
NCI-H838; first compound 0.3162 µM
  relative viability: 0.745
NCI-H838; first compound 1 µM
  relative viability: 0.272
BEN; first compound 0.01 µM
  relative viability: 0.639
BEN; first compound 0.03162 µM
  relative viability: 0.558
BEN; first compound 0.1 µM
  relative viability: 0.633
BEN; first compound 0.3162 µM
  relative viability: 0.619
BEN; first compound 1 µM
  relative viability: 0.543
NCI-H650; first compound 0.01 µM
  relative viability: 0.435
NCI-H650; first compound 0.03162 µM
  relative viability: 0.404
NCI-H650; first compound 0.1 µM
  relative viability: 0.411
NCI-H650; first compound 0.3162 µM
  relative viability: 0.399
NCI-H650; first compound 1 µM
  relative viability: 0.334
NCI-H2087; first compound 0.01 µM
  relative viability: 0.891
NCI-H2087; first compound 0.03162 µM
  relative viability: 0.874
NCI-H2087; first compound 0.1 µM
  relative viability: 0.841
NCI-H2087; first compound 0.3162 µM
  relative viability: 0.976
NCI-H2087; first compound 1 µM
  relative viability: 0.791
NCI-H358; first compound 0.01 µM
  relative viability: 0.687
NCI-H358; first compound 0.03162 µM
  relative viability: 0.667
NCI-H358; first compound 0.1 µM
  relative viability: 0.658
NCI-H358; first compound 0.3162 µM
  relative viability: 0.346
NCI-H358; first compound 1 µM
  relative viability: 0.0934
NCI-H1944; first compound 0.01 µM
  relative viability: 0.544
NCI-H1944; first compound 0.03162 µM
  relative viability: 0.654
NCI-H1944; first compound 0.1 µM
  relative viability: 0.611
NCI-H1944; first compound 0.3162 µM
  relative viability: 0.568
NCI-H1944; first compound 1 µM
  relative viability: 0.295
LK-2; first compound 0.01 µM
  relative viability: 0.307
LK-2; first compound 0.03162 µM
  relative viability: 0.316
LK-2; first compound 0.1 µM
  relative viability: 0.272
LK-2; first compound 0.3162 µM
  relative viability: 0.468
LK-2; first compound 1 µM
  relative viability: 0.283
NCI-H1666; first compound 0.01 µM
  relative viability: 1.16
NCI-H1666; first compound 0.03162 µM
  relative viability: 1.17
NCI-H1666; first compound 0.1 µM
  relative viability: 1.22
NCI-H1666; first compound 0.3162 µM
  relative viability: 1.21
NCI-H1666; first compound 1 µM
  relative viability: 1.07
LCLC-97TM1; first compound 0.01 µM
  relative viability: 0.799
LCLC-97TM1; first compound 0.03162 µM
  relative viability: 0.725
LCLC-97TM1; first compound 0.1 µM
  relative viability: 0.648
LCLC-97TM1; first compound 0.3162 µM
  relative viability: 0.636
LCLC-97TM1; first compound 1 µM
  relative viability: 0.356
